This passage reports IC50 results from ChEMBL document CHEMBL3046032, “Synthesis and biological evaluation of novel AM80 derivatives as antileukemic agents” (Med Chem Res, 2013).

Common to all, as to assay type: functional, cell-based
In experiment [1] the test system is NB-4. Put plainly: Cytotoxicity against Homo sapiens (human) NB4 cells assessed as growth inhibition after 48 hr by MTT assay. The settings on record: NB-4, 48 h.
Experiment [2] has as its system HL-60. The experiment can be described thus: Cytotoxicity against Homo sapiens (human) HL60 cells assessed as growth inhibition after 48 hr by MTT assay. The settings on record: HL-60, 48 h.
For experiment [3], the system named is K562. The experiment can be described thus: Cytotoxicity against Homo sapiens (human) K562 cells assessed as growth inhibition after 48 hr by MTT assay. As to conditions: K562, 48 h.

Each structure is given as a SMILES string.

Take `C=C(c1ccc(C(=O)NCCOC(=O)c2ccc(C(=O)Nc3ccc4c(c3)C(C)(C)CCC4(C)C)cc2)cc1)c1cc2c(cc1C)C(C)(C)CCC2(C)C`: the figures for the IC50 in experiment [1], in experiment [2] and in experiment [3] were > 1000 µM, 504 µM and > 1000 µM, respectively.

On to `CCCC(=O)OCCOC(=O)c1ccc(C(=O)Nc2ccc3c(c2)C(C)(C)CCC3(C)C)cc1`, for which the IC50 was determined as 11 µM in experiment [1], 6.29 µM in experiment [2] and 18.6 µM in experiment [3].

For `CCCC(=O)OCCCOC(=O)c1ccc(C(=O)Nc2ccc3c(c2)C(C)(C)CCC3(C)C)cc1`, the 50% inhibitory concentration (IC50) in experiment [1] turned out to be 5.75 µM; in experiment [2] it was 2.99 µM; in experiment [3], 4.57 µM.

For the molecule `CCCC(=O)OCCCCOC(=O)c1ccc(C(=O)Nc2ccc3c(c2)C(C)(C)CCC3(C)C)cc1`, the results for the IC50 in experiment [1], in experiment [2] and in experiment [3] were 23.2 µM, 7.32 µM and 92.6 µM, respectively.

As for `CCCC(CCC)C(=O)OCCOC(=O)c1ccc(C(=O)Nc2ccc3c(c2)C(C)(C)CCC3(C)C)cc1`, the figures for the 50% inhibitory concentration (IC50) in experiment [1], in experiment [2] and in experiment [3] were > 1000 µM, 256 µM and 664 µM, respectively.

On to `CCCC(CCC)C(=O)OCCCOC(=O)c1ccc(C(=O)Nc2ccc3c(c2)C(C)(C)CCC3(C)C)cc1`, for which the IC50 in experiment [1] is > 1000 µM; in experiment [2], 835 µM; in experiment [3], > 1000 µM.

For the molecule `CCCC(CCC)C(=O)OCCCCOC(=O)c1ccc(C(=O)Nc2ccc3c(c2)C(C)(C)CCC3(C)C)cc1`, the IC50 was > 1000 µM in experiment [1], 914 µM in experiment [2] and > 1000 µM in experiment [3].

For `CCCC(=O)NCCNC(=O)c1ccc(C(=O)Nc2ccc3c(c2)C(C)(C)CCC3(C)C)cc1`, the IC50 in experiment [1] was 3.26 µM; in experiment [2] it was 5.61 µM; in experiment [3], 7.98 µM.

With `CCCC(CCC)C(=O)NCCNC(=O)c1ccc(C(=O)Nc2ccc3c(c2)C(C)(C)CCC3(C)C)cc1`, the IC50 is 5.69 µM in experiment [1], 12.4 µM in experiment [2] and 83.7 µM in experiment [3].

As for `CCCC(=O)OCCNC(=O)c1ccc(C(=O)Nc2ccc3c(c2)C(C)(C)CCC3(C)C)cc1`, the 50% inhibitory concentration (IC50) in experiment [1] is 213 µM; in experiment [2], 36.8 µM; in experiment [3], 25.4 µM.

On to `CCCC(CCC)C(=O)OCCNC(=O)c1ccc(C(=O)Nc2ccc3c(c2)C(C)(C)CCC3(C)C)cc1`, for which the IC50 in experiment [1], in experiment [2] and in experiment [3] was > 1000 µM each time.

Turning to `Cc1cc2c(cc1C(=O)c1ccc(C(=O)OCCOC(=O)c3ccc(C(=O)Nc4ccc5c(c4)C(C)(C)CCC5(C)C)cc3)cc1)C(C)(C)CCC2(C)C`, the IC50 in experiment [1] worked out at 67 µM; in experiment [2] it was 6.83 µM; in experiment [3] it was 39.9 µM.

On to `Cc1cc2c(cc1C(=O)c1ccc(C(=O)OCCCOC(=O)c3ccc(C(=O)Nc4ccc5c(c4)C(C)(C)CCC5(C)C)cc3)cc1)C(C)(C)CCC2(C)C`, for which the concentration for half-maximal inhibition (IC50) in experiment [1] was 112 µM; in experiment [2] it was 14.9 µM; in experiment [3] it was 49.1 µM.

Turning to `Cc1cc2c(cc1C(=O)c1ccc(C(=O)OCCCCOC(=O)c3ccc(C(=O)Nc4ccc5c(c4)C(C)(C)CCC5(C)C)cc3)cc1)C(C)(C)CCC2(C)C`, the IC50 in experiment [1] is 147 µM; in experiment [2] it was 24.7 µM; in experiment [3], 84 µM.

Take `C=C(c1ccc(C(=O)OCCOC(=O)c2ccc(C(=O)Nc3ccc4c(c3)C(C)(C)CCC4(C)C)cc2)cc1)c1cc2c(cc1C)C(C)(C)CCC2(C)C`: the IC50 was > 1000 µM in experiment [1], 30.7 µM in experiment [2] and 504 µM in experiment [3].

Turning to `C=C(c1ccc(C(=O)OCCCOC(=O)c2ccc(C(=O)Nc3ccc4c(c3)C(C)(C)CCC4(C)C)cc2)cc1)c1cc2c(cc1C)C(C)(C)CCC2(C)C`, the IC50 in experiment [1] is 212 µM; in experiment [2], 19.2 µM; in experiment [3], > 1000 µM.

As for `C=C(c1ccc(C(=O)OCCCCOC(=O)c2ccc(C(=O)Nc3ccc4c(c3)C(C)(C)CCC4(C)C)cc2)cc1)c1cc2c(cc1C)C(C)(C)CCC2(C)C`, the IC50 was 650 µM in experiment [1], 25.1 µM in experiment [2] and > 1000 µM in experiment [3].

On to `Cc1cc2c(cc1C(=O)c1ccc(C(=O)NCCNC(=O)c3ccc(C(=O)Nc4ccc5c(c4)C(C)(C)CCC5(C)C)cc3)cc1)C(C)(C)CCC2(C)C`, for which the results for the IC50 in experiment [1], in experiment [2] and in experiment [3] were 104 µM, 14.3 µM and 39.6 µM, respectively.

Consider `Cc1cc2c(cc1C(=O)c1ccc(C(=O)NCCCCCCNC(=O)c3ccc(C(=O)Nc4ccc5c(c4)C(C)(C)CCC5(C)C)cc3)cc1)C(C)(C)CCC2(C)C`, for which the IC50 was > 1000 µM in experiment [1], 95.4 µM in experiment [2] and 95.4 µM in experiment [3].

With `C=C(c1ccc(C(=O)NCCNC(=O)c2ccc(C(=O)Nc3ccc4c(c3)C(C)(C)CCC4(C)C)cc2)cc1)c1cc2c(cc1C)C(C)(C)CCC2(C)C`, the IC50 in experiment [1] turned out to be 569 µM; in experiment [2] it was 14.8 µM; in experiment [3] it was 73.5 µM.

`C=C(c1ccc(C(=O)NCCCCCCNC(=O)c2ccc(C(=O)Nc3ccc4c(c3)C(C)(C)CCC4(C)C)cc2)cc1)c1cc2c(cc1C)C(C)(C)CCC2(C)C`: the values for the IC50 in experiment [1], in experiment [2] and in experiment [3] were > 1000 µM, 70.7 µM and 294 µM, respectively.

Turning to `Cc1cc2c(cc1C(=O)c1ccc(C(=O)NCCOC(=O)c3ccc(C(=O)Nc4ccc5c(c4)C(C)(C)CCC5(C)C)cc3)cc1)C(C)(C)CCC2(C)C`, the IC50 was determined as 72.4 µM in experiment [1], 37.5 µM in experiment [2] and 247 µM in experiment [3].
